According to patent US20230416329A1, “A PEPTIDE WITH DISULFIDE BONDS AND INHIBITORY ACTIVITY AGAINST SERINE PROTEASES, DERIVED HYBRID PEPTIDES THEREOF, AND USES THEREOF” (INSTITUTE OF MATERIA MEDICA , CHINESE ACADEMY OF MEDICAL …, priority 2020, published 2023):
Bridge positions count the residues as written; N and C are the ends. Peptide text beside a SMILES is read from it.

Target: α-chymotrypsin (Bos taurus, UniProt P00766)
Assay: Chymotrypsin inhibitory activity of peptides (AAPFpNA hydrolysis; IC50, Ki, residual activity)
Assay type: biochemical
Details: for Ki: Ki=IC50/(1+S/Km), Km 0.38 mM; for IC50: chymotrypsin 30 nM, AAPFpNA 0.5 mM
Experimental: The inhibition constants of various synthetic active peptide inhibitors (molecular scaffolds) against seine proteases were measured. The substrates N-succinyl-Ala-Ala-Pro-Phe-p-nitroaniline (AAPFpNA), Nα—Benzoyl-L-arginine-4-nitroaniline hydrochloride (BApNA) and N-succinyl-[…] (AAApNA) are used in competitive binding reaction to determine the inhibitory activities against α-chymotrypsin, bovine trypsin, and porcine pancreatic elastase, respectively. Experiments for α-chymotrypsin and bovine trypsin inhibition were measured in 20 mM CaCl2, 50 mM Tris-HCl buffer (pH 7.8), and that for porcine elastase inhibition was measured in 50 mM Tris-HCl buffer (pH 8.0). The concentration of the peptide was measured using optical density (OD) at 280 nm. The Michaelis constant (Km) of the enzyme hydrolysis substrate is calculated from the initial rate of substrate hydrolysis at 405 nm. The absorbance value of the substrate was measured at 405 nm after complete hydrolysis. All data were processed using nonlinear regression.
• (1) Added a total 190 μL of reaction buffer (20 mM CaCl2, 50 mM Tris-HCl (pH 7.8)) into the 96 well plate, followed by preheating at 37° C. for 15 min. Then added 2 μL of different concentrations of substrates (p-Nitroanilide, pNA, 0.5% in DMSO), and mixed by centrifugation at 500 rpm for 1 min. Finally, the plate was incubated at 37° C. for 20 min, and the absorbance value at 405 nm was measured. In the 200 μL of reaction system, the final concentrations of pNA were 0, 0.025, 0.05, 0.075, 0.1, 0.125, 0.15, 0.25, and 0.3 mM, respectively. Make three repetitions for each concentration and plot the OD405 m value with pNA concentration to obtain the standard curve. • (2) Added a total 190 μL of reaction buffer (20 mM CaCl2, 50 mM Tris-HCl (pH 7.8)) and 8 μL of 0.75 μM chymotrypsin into the 96 well plate, followed by preheating at 37° C. for 5 min. Then added 2 μL of different concentrations of substrates (AAPFpNA, dissolved in DMSO), and mixed by centrifugation at 500 rpm for 1 min. Finally, the plate was incubated at 37° C. for 20 min, and the absorbance value at 405 nm was measured. In the 200 μL of reaction system, the final concentrations of AAPFpNA were 0, 0.125, 0.25, 0.285, 0.33, 0.4, and 0.5 mM, respectively. Make three repetitions for each concentration and plot the OD405 nm value with time to obtain the corresponding curve. Divide the slope of the curve by the slope of the standard curve and the enzyme concentration to obtain the initial velocity V0 (mM/(min*mM protein). Plot the initial velocity V0 with the concentration of substrate AAPFpNA using Prism software, and the Michaelis constant Km value of chymotrypsin hydrolyzing AAPFpNA was obtained.
• (1) Added a total 190 μL of reaction buffer (20 mM CaCl2, 50 mM Tris-HCl (pH 7.8)), different concentrations of anti-chymorypsin peptides (CHs) into the pre-cold 96 well plate, followed by preheating at 37° C. for 5 min and centrifugated at 500 rpm for 1 min and allowed to stand for 4 minutes. Then added 8 μL of 750 nM chymotrypsin and incubated at 37° C. for 10 min, and centrifugated at 500 rpm for 1 min and allowed to stand for 9 minutes. Finally, added 2 μL of 50 mM AAPFpNA, and mixed by centrifugation at 500 rpm for 1 min. The plate was incubated at 37° C. for 90 min, and the absorbance value at 405 nm was measured. Three repetitions were made, and only reaction buffer and substrate were added in the blank control as the minimum absorption value (Min OD405 nm); Only reaction buffer, enzyme and substrate were added in the negative control as the maximum absorption value (Max OD405). • (2) In the 200 μL of reaction system, the final concentrations of chymotrypsin and AAPFpNA were 30 nM and 0.5 mM, respectively. • (3) Data statistics
Residual activity of enzyme (%)=(1−(Max OD405 nm−Sample OD405 nm)/(Max OD405 nm−Min OD405 nm))*100 […]

| Structure (SMILES) | Ki [µM] | IC50 [µM] | inhibitory activity against chymotrypsin (in words) | other results |
| --- | --- | --- | --- | --- |
| CC[C@H](C)[C@@H]1NC(=O)[C@H](CO)NC(=O)[C@H](CC(C)C)NC(=O)[C@H]([C@@H](C)O)NC(=O)[C@@H](NC(=O)[C@@H](N)Cc2ccccc2)CSSC[C@@H](C(=O)N[C@@H](Cc2ccc(O)cc2)C(=O)NCC(=O)O)NC(=O)[C@H](CCC(N)=O)NC(=O)[C@@H]2CCCN2C(=O)[C@@H]2CCCN2C1=O [CH19] (H-FCTLSIPPQCYG-OH; disulfide 2-10; N-terminus and C-terminus assumed) | 4.87 | 11.3 |  |  |
| CC[C@H](C)[C@@H]1NC(=O)[C@@H]2CCCN2C(=O)[C@@H]2CCCN2C(=O)[C@H]([C@@H](C)CC)NC(=O)[C@H](CO)NC(=O)[C@H](Cc2ccc(O)cc2)NC(=O)[C@H](CC(C)C)NC(=O)[C@@H](NC(=O)[C@H](CCCCN)NC(=O)CN)CSSC[C@@H](C(=O)N[C@@H](Cc2ccccc2)C(=O)N2CCC[C@H]2C(=O)N[C@@H](CC(N)=O)C(=O)O)NC1=O [CH20] (H-GKCLYSIPPICFPN-OH; disulfide 3-11; N-terminus and C-terminus assumed) | 7.1 | 16.4 |  |  |
| CC[C@H](C)[C@@H]1NC(=O)[C@H](CO)NC(=O)[C@H](Cc2ccc(O)cc2)NC(=O)[C@H]([C@@H](C)O)NC(=O)[C@H](C)NC(=O)[C@H]([C@@H](C)O)NC(=O)CNC(=O)[C@@H](N)CSSC[C@@H](C(=O)N[C@@H](Cc2ccc(O)cc2)C(=O)NCC(=O)O)NC(=O)[C@H](CCC(N)=O)NC(=O)[C@@H]2CCCN2C(=O)[C@@H]2CCCN2C1=O [CH22] (H-CGTATYSIPPQCYG-OH; disulfide 1-12; N-terminus and C-terminus assumed) |  | > 50 |  |  |
| CC[C@H](C)[C@@H]1NC(=O)[C@@H]2CCCN2C(=O)[C@@H]2CCCN2C(=O)[C@H]([C@@H](C)CC)NC(=O)[C@H](CO)NC(=O)[C@H](Cc2ccccc2)NC(=O)[C@H]([C@@H](C)O)NC(=O)[C@@H](NC(=O)[C@@H](NC(=O)CN)[C@@H](C)O)CSSC[C@@H](C(=O)N[C@@H](CC(N)=O)C(=O)N2CCC[C@H]2C(=O)N[C@@H](CC(N)=O)C(=O)O)NC1=O [CH25] (H-GTCTFSIPPICNPN-OH; disulfide 3-11) | 0.12 | 0.28 |  |  |
| CC[C@H](C)[C@@H]1NC(=O)[C@@H]2CCCN2C(=O)[C@@H]2CCCN2C(=O)[C@H]([C@@H](C)CC)NC(=O)[C@H](CO)NC(=O)[C@H](Cc2ccccc2)NC(=O)[C@H]([C@@H](C)O)NC(=O)[C@@H](NC(=O)[C@@H](NC(=O)CN)[C@@H](C)O)CSSC[C@@H](C(=O)N[C@@H](CC(N)=O)C(=O)O)NC1=O [CH26] (H-GTCTFSIPPICN-OH; disulfide 3-11; C-terminus assumed) |  |  | good inhibitory activity |  |
| CC[C@H](C)[C@@H]1NC(=O)[C@@H]2CCCN2C(=O)[C@@H]2CCCN2C(=O)[C@H]([C@@H](C)CC)NC(=O)[C@H](CO)NC(=O)[C@H](Cc2ccccc2)NC(=O)[C@H]([C@@H](C)O)NC(=O)[C@H](C)NC(=O)[C@H]([C@@H](C)O)NC(=O)CNC(=O)[C@@H](N)CSSC[C@@H](C(=O)N[C@@H](CC(N)=O)C(=O)O)NC1=O [CH27] (H-CGTATFSIPPICN-OH; disulfide 1-12; N-terminus and C-terminus assumed) | 2.88 | 6.66 | certain inhibitory activity | Residual activity of chymotrypsin (peptide 0.01 μM): 102.7 ± 2.4%; Residual activity of chymotrypsin (peptide 0.1 μM): 105.3 ± 0.9%; Residual activity of chymotrypsin (peptide 1 μM): 106.0 ± 0.7%; Residual activity of chymotrypsin (peptide 3 μM): 86.8 ± 1.5%; Residual activity of chymotrypsin (peptide 6 μM): 64.9 ± 3.1%; Residual activity of chymotrypsin (peptide 10 μM): 26.2 ± 2.4%; Residual activity of chymotrypsin (peptide 25 μM): 15.5 ± 0.3%; Residual activity of chymotrypsin (peptide 100 μM): 2.9 ± 0.3%; Residual activity of chymotrypsin (peptide 300 μM): 1.2 ± 0.0%; Residual activity of chymotrypsin (peptide 1000 μM): 0.7 ± 0.1% |

Second part, led by results:

| Ki [µM] | IC50 [µM] | inhibitory activity against chymotrypsin (in words) | Structure (SMILES) | other results |
| --- | --- | --- | --- | --- |
| 1.99 | 4.6 |  | CC[C@H](C)[C@@H]1NC(=O)[C@H](CO)NC(=O)[C@H](Cc2ccc(O)cc2)NC(=O)[C@H]([C@@H](C)O)NC(=O)[C@H](C)NC(=O)[C@H](CO)NC(=O)CNC(=O)[C@@H](N)CSSC[C@@H](C(=O)N[C@@H](Cc2ccc(O)cc2)C(=O)NCC(=O)O)NC(=O)[C@H](CCC(N)=O)NC(=O)[C@@H]2CCCN2C(=O)[C@@H]2CCCN2C1=O [CH15] (H-CGSATYSIPPQCYG-OH; disulfide 1-12; N-terminus and C-terminus assumed) |  |
|  | > 50 |  | CC[C@H](C)[C@@H]1NC(=O)[C@H](CO)NC(=O)[C@H](Cc2ccc(O)cc2)NC(=O)[C@H]([C@@H](C)O)NC(=O)[C@H](C)NC(=O)[C@H](CO)NC(=O)[C@@H](N)CSSC[C@@H](C(=O)N[C@@H](Cc2ccc(O)cc2)C(=O)NCC(=O)O)NC(=O)[C@H](CCC(N)=O)NC(=O)[C@@H]2CCCN2C(=O)[C@@H]2CCCN2C1=O [CH16] (H-CSATYSIPPQCYG-OH; disulfide 1-11; N-terminus and C-terminus assumed) |  |
|  | > 50 |  | CC[C@H](C)[C@@H]1NC(=O)[C@H](CO)NC(=O)[C@H](Cc2ccc(O)cc2)NC(=O)[C@H]([C@@H](C)O)NC(=O)[C@H](C)NC(=O)[C@H](CC(N)=O)NC(=O)CNC(=O)[C@@H](N)CSSC[C@@H](C(=O)N[C@@H](Cc2ccc(O)cc2)C(=O)NCC(=O)O)NC(=O)[C@H](CCC(N)=O)NC(=O)[C@@H]2CCCN2C(=O)[C@@H]2CCCN2C1=O [CH21] (H-CGNATYSIPPQCYG-OH; disulfide 1-12; N-terminus and C-terminus assumed) |  |
| 1.86 | 4.31 | good inhibitory activity | CC[C@H](C)[C@@H]1NC(=O)[C@H](CO)NC(=O)[C@H](Cc2ccc(O)cc2)NC(=O)[C@H]([C@@H](C)O)NC(=O)[C@H](C)NC(=O)[C@H](CO)NC(=O)CNC(=O)[C@@H](N)CSSC[C@@H](C(=O)N[C@H](C(=O)NCC(=O)O)C(C)C)NC(=O)[C@H](CCC(N)=O)NC(=O)[C@H](C)NC(=O)[C@@H]2CCCN2C1=O [CH23] (H-CGSATYSIPAQCVG-OH; disulfide 1-12; N-terminus and C-terminus assumed) |  |
| 2.65 | 6.14 | good inhibitory activity | CC[C@H](C)[C@@H]1NC(=O)[C@H](CO)NC(=O)[C@H](Cc2ccc(O)cc2)NC(=O)[C@H]([C@@H](C)O)NC(=O)[C@H](C)NC(=O)[C@H](CO)NC(=O)CNC(=O)[C@@H](N)CSSC[C@@H](C(=O)N[C@@H](Cc2ccccc2)C(=O)NCC(=O)O)NC(=O)[C@H](CCCCN)NC(=O)[C@H](C)NC(=O)[C@@H]2CCCN2C1=O [CH24] (H-CGSATYSIPAKCFG-OH; disulfide 1-12; N-terminus and C-terminus assumed) |  |
|  | > 50 |  | CC[C@H](C)[C@@H]1NC(=O)[C@H](Cc2ccc(O)cc2)NC(=O)[C@H](C)NC(=O)[C@H](CCSC)NC(=O)[C@H](C)NC(=O)[C@H](CCC(=O)O)NC(=O)CNC(=O)[C@@H]2CCCN2C(=O)[C@@H](N)CSSC[C@@H](C(=O)N[C@@H](Cc2ccccc2)C(=O)O)NC(=O)[C@H](CO)NC(=O)[C@H](CCCNC(=N)N)NC1=O [CH28] (H-CPGEAMAYIRSCF-OH; disulfide 1-12; N-terminus and C-terminus assumed) |  |
|  | > 50 |  | CC[C@H](C)[C@@H]1NC(=O)[C@H](CO)NC(=O)[C@H](Cc2ccc(O)cc2)NC(=O)[C@H]([C@@H](C)O)NC(=O)[C@H](C)NC(=O)[C@H](CO)NC(=O)CNC(=O)CNC(=O)[C@@H](N)CSSC[C@@H](C(=O)N[C@@H](Cc2ccc(O)cc2)C(=O)O)NC(=O)[C@H](CCC(N)=O)NC(=O)[C@@H]2CCCN2C(=O)[C@@H]2CCCN2C1=O [CH29] (H-CGGSATYSIPPQCY-OH; disulfide 1-13; N-terminus and C-terminus assumed) |  |
